Data as given in patent US10626368B2, “Method for inducing cerebral cortex neurons” (KYOTO UNIVERSITY, priority 2015, dated 2020).

Tests used:
ES cells (Kh-1) = experiment: Adhesion of spheres to OFL coat dish; assay type: cell-based, human; settings: 10 nM C59, ES cells (Kh-1)
Source text: Human ES cells (KhES-1) were obtained from Institute for Frontier Medical Sciences, Kyoto University (Suemori H, et al. Biochem Biophys Res Commun. 345: 926-32, 2006). The human iPS cells 404C2 are cells obtained by introducing Oct3/4, Sox2, Klf4, L-MYC, LIN28 and p53shRNA into human fibroblasts, using an episomal vector, and these cells were obtained from Professor Yamanaka et al. in Kyoto University (Okita, et al, Nat Methods. 8: 409-412, 2011). The human iPS cells 836B1 are cells obtained by introducing Oct3/4, Sox2, Klf4, L-MYC, LIN28, GLIS1 and p53shRNA into human fibroblasts, using an episomal vector, and these cells were obtained from Professor Yamanaka et al. in Kyoto University. The ES cells and the iPS cells were cultured on SNL cells (Takahashi K, et al, Cell. 131: 861-872, 2007). The obtained cell mass was transferred on a dish (24-well plate (BD)) coated with 50 μg/ml ornithine (Sigma), 5 μg/ml laminin (Sigma) and 5 μg/ml fibronectin (BD Bioscience Pharmingen), and the culture was continued in Neurobasal (Invitrogen), to which B27 (Invitrogen), 2 mM L-Gln, and 10 units/ml penicillin and streptomycin (Invitrogen) had been added. […] Furthermore, the expression levels of the Foxg1, Lhx2, Emx2 and CoupTF1 genes in the obtained spheres were measured according to a qPCR method (FIG. 4B). […]

iPS cells (836B1) = experiment: Immunostaining for CoupTF1 and Ctip2 on day 46, suspension culture with various WNT inhibitors (Example 4); assay type: cell-based, human; settings: 50 nM C59, 100 nM LGK-974, 1 μM ICG-001, day 46; C59 and LGK-974 compared with each other
Description: On the day before induction of differentiation, in order to separate the iPS cells (836B1), which had been cultured in a culture medium to which 10 μM Y-27632 had been added, from the SNL feeder cells, the SNL cells were removed with CTK and the remaining cells were then dissociated using Accumax. The cells were transferred on a 96-well plate (Lipidure-coat 96-well plate) in an amount of 9×10^3 cells per well. Thereafter, the cells were subjected to a suspension culture in DMEM/F12 comprising 50 μM Y-27632, 10 μM SB43152, 10 ng/ml bFGF, various types of Wnt inhibitors (50 nM C59, 100 nM LGK-974, or 1 μM ICG-001 (Cellagen Technology)), 100 nM LDN193189, 10% KSR, 0.1 mM MEM non-essential amino acid, 0.1 mM 2-mercaptoethanol, and 2 mM L-Gln (initiation of differentiation induction, day 0). […] Three days later, the medium was exchanged with DMEM/F12 comprising various types of WNT inhibitors (C59, LGK-974, or ICG-001), 100 nM LDN193189, 10% KSR, 0.1 mM MEM non-essential amino acid, 0.1 mM 2-mercaptoethanol, and 2 mM L-Gln (day 6). Thereafter, the medium was exchanged with a fresh one of the same type every 3 days, and the culture was carried out for 18 days after the initiation of differentiation induction (day 18).
A half of the medium on day 18 was removed by aspiration, and thereafter, Neurobasal, to which B27, 2 mM L-Gln, and 10 units/ml penicillin and streptomycin had been added, was added in the same amount as the removed medium to the remaining medium. Likewise, a half amount of the medium was exchanged on day 21. On day 24, the cells were transferred on a petri dish, and thereafter, a half of the medium was exchanged every 3 or 4 days. On day 46, the obtained cells were immunostained using antibodies against CoupTF1 and Ctip2. […] From the aforementioned results, it was confirmed that nerve cells existing in the desired corticocerebral motor area can be induced even by utilizing the WNT inhibitor LGK-974 having a similar action to C59.

With `Cc1cc(-c2ccc(CC(=O)Nc3ccc(-c4cccnc4)cc3)cc2)ccn1` [C59] the “adhesion of spheres to an OFL coat dish” value (ES cells (Kh-1)) was “did not adhere so much” and the “efficiency of inducing CoupTF1-negative Ctip2-positive cells” value (iPS cells (836B1)) was “not found a large difference”.
